Assay: Studies 004 and 005 together: timolol run-in and comparison of patient groups
Type: in vivo, patients
Conditions: timolol run-in period before baseline
Method: A sub-population of 76 individuals in a population of total 854 patients enrolled into two different studies of German patients (004) and US patients (005) were identified at baseline as having some degree of abnormality to the optic nerve head together with a glaucomatous visual field defect and were treated with a fixed combination (FC) of latanoprost and timolol. Both studies were based on a randomized double-masked parallel group design. In both studies, a fixed combination (FC) of latanoprost and timolol was administered to a group of patients with optic nerve head damage and visual field loss (i.e. glaucomatous field defects) and to groups of patients without any such detected damages, but with an elevation of IOP. Patient demography and baseline characteristics in patients with and without optic nerve head damages and glaucomatous field defects are shown in Table 2.1.
The patients is the studies received one drop in the morning of a fixed combination of latanoprost (50 μg/ml) and timolol (5 mg/ml) during the study duration of 26 weeks. The exact composition of fixed combination is disclosed in Table 1. At baseline, IOP assessments were made at 08:00, 10:00, and 16:00. Measurements at the same time-points were subsequently made at scheduled clinic visits at Week 2, Week 13, and Week 26. Additionally, an 08:00 measurement was also obtained at Week 6. […]

## CC(C)(C)NC[C@H](O)COc1nsnc1N1CCOCC1 [timolol]
  decrease in IOP: approximately 5 mm Hg
